Patent US20190031618A1, “BENZIMIDAZOLE DERIVATIVES USEFUL AS CB-1 INVERSE AGONISTS” (Janssen Pharmaceutica NV, priority 2015, published 2019)
“And” between values parts separate entries of the source, which are not always exact repeats. Equal values may be shown once.

Experiments:
[1] = Five-Day Study in DIO Mice: plasma and brain compound levels; settings: mouse, in vivo, 30 mg/kg
in vivo = settings: mouse, 30 mg/kg

SMILES: CCc1nc2ccc(C(c3ccc(Cl)cc3)c3ccc(Cl)cc3)cc2n1C1CCN(S(=O)(=O)C(F)(F)F)CC1 [Example 328]
- concentration at 2 h [1]: 8360 ng/mL and 291 ng/g

SMILES: O=S(=O)(N1CCC(n2c(C3CC3)nc3ccc(C(c4ccc(Cl)cc4)c4ccc(Cl)cc4)cc32)CC1)C(F)(F)F [Example 335]
- concentration at 2 h (in vivo): 7660 ng/mL and 208 ng/g
